The results in this text go back to patent US8883782B2, “Spiro-tetracyclic ring compounds as beta-secretase modulators and methods of use” (Amgen Inc., priority 2010, dated 2014).

For assay [1], the target named is Beta Secretase enzyme (BACE) (Homo sapiens, UniProt P56817). Briefly: In vitro enzymatic BACE FRET (fluorescence resonance energy transfer) assay. Format: biochemical. The settings on record: average IC50, enzyme assay; read-out: BACE 1 FRET assay. The method, boiled down:
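Run in 0.05 M acetate pH 4.2 with 10% DMSO final and 100 uM genapol; started by adding 50 nM FRET peptide substrate (fluorophore and quencher flanking the cleavage site), incubated one hour, then stopped with Tris to neutral pH before reading fluorescence.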

Assay [2] deals with Aβ40 in conditioned medium of cells stably expressing Amyloid Precursor Protein (APP). Description: In vitro BACE cell-based assay (Aβ40 in conditioned medium, sandwich ELISA). The settings on record: read-out: HEK cell assay. In short, it runs like this:
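Step two: 10-point compound titration added, starting 100 μM or 10 μM, 0.1% DMSO. Step three: medium Aβ40 measured by ELISA, capture 3 h and detection 2 h at 4° C, TRF read.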
(In general: In an ELISA, binding on a coated surface is turned into a signal by an enzyme label.)

Setting [3] is: Homo sapiens, HEK293, average IC50, HEK cells.
[4] abbreviates: Homo sapiens, HEK293, average IC50.

Like-named read-outs stand apart in the source and are kept apart here.

Sequence of Beta Secretase enzyme (BACE) (P56817 46-501, species assumed): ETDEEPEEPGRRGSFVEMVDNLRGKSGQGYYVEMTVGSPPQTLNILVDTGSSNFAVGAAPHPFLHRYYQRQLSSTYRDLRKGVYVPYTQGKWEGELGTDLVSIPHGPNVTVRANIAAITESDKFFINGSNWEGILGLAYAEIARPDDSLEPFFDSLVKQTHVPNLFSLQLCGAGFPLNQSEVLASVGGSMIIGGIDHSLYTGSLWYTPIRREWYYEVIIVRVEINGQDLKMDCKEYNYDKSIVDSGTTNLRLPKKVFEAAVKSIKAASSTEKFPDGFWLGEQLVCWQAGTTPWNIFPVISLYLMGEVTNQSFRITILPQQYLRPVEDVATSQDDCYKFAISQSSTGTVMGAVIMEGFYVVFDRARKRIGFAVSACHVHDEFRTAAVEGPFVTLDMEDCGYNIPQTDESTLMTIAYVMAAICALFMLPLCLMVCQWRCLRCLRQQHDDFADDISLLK

For `N#Cc1cccc(-c2ccc3c(c2)[C@@]2(COC(N)=N2)c2cc(N4CC[C@H](F)C4)nc(F)c2O3)c1` [Example 924, 3-((5S)-2′-amino-1-fluoro-3-((3S)-3-fluoro-1-pyrrolidinyl)spiro[chromeno[2,3-c]pyridine-5,4′-[1,3]oxazol]-7-yl)benzonitrile], the IC50 in assay [1] turned out to be 0.5 nM; in assay [2] (setting [3]), 18 nM.

For `N#Cc1cccc(-c2ccc3c(c2)[C@@]2(COC(N)=N2)c2cc(N4CC[C@H](F)C4)ncc2O3)c1` [Example 426, 3-((5S)-2′-amino-3-((3S)-3-fluoro-1-pyrrolidinyl)spiro[chromeno[2,3-c]pyridine-5,4′-[1,3]oxazol]-7-yl)benzonitrile], the IC50 turned out to be 3.5 nM in assay [1] and 16.8 nM in assay [2] (setting [3]).

As for `Cn1cc(-c2cc(F)c3c(c2)[C@]2(COC(N)=N2)c2cc(-c4cncc(C#N)c4)ccc2O3)cn1` [Example 554, 5-((4S)-2-amino-5′-fluoro-7′-(1-methyl-1H-pyrazol-4-yl)spiro[1,3-oxazole-4,9′-xanthen]-2′-yl)-3-pyridinecarbonitrile], the results for the IC50 in assay [1] and in assay [2] (setting [3]) were 1.6 nM and 6.3 nM, respectively.

`CC(C)(C)/C=C/c1cc2c(cn1)Oc1ccc(-c3ccc(F)nc3)cc1[C@@]21COC(N)=N1` [Example 434, (5S)-3-((1E)-3,3-dimethyl-1-buten-1-yl)-7-(6-fluoro-3-pyridinyl)spiro[chromeno[2,3-c]pyridine-5,4′-[1,3]oxazol]-2′-amine]: the figures for the IC50 in assay [1] and in assay [2] (setting [3]) were 3 nM and 31.7 nM, respectively.

Regarding `CC(C)(C)C#Cc1cc2c(cn1)Oc1ccc(-c3cccnc3F)cc1C21CSC(N)=N1` (stereo not shown) [Example 637, 3-(3,3-dimethyl-1-butyn-1-yl)-7-(2-fluoro-3-pyridinyl)spiro[chromeno[2,3-c]pyridine-5,4′-[1,3]thiazol]-2′-amine], the results for the IC50 in assay [1] and in assay [2] (setting [3]) were 2.1 nM and 62 nM, respectively.

As for `CC1(C)C=C(c2cc3c(c(F)n2)Oc2ccc(-c4cccnc4F)cc2[C@]32CSC(N)=N2)CCO1` [Example 1035, (5R)-3-(6,6-dimethyl-3,6-dihydro-2H-pyran-4-yl)-1-fluoro-7-(2-fluoro-3-pyridinyl)spiro[chromeno[2,3-c]pyridine-5,4′-[1,3]thiazol]-2′-amine], the results for the IC50 in assay [1] and in assay [2] (setting [4]) were 1.3 nM and 14 nM, respectively.

`NC1=N[C@@]2(CS1)c1cc(-c3cncc(F)c3)ccc1Oc1ncc(-c3ncccn3)cc12` [Example 771, (5S)-7-(5-fluoro-3-pyridinyl)-3-(2-pyrimidinyl)spiro[chromeno[2,3-b]pyridine-5,4′-[1,3]thiazol]-2′-amine]: the IC50 in assay [1] was 4.6 nM; in assay [2] (setting [4]), 96 nM.

In the case of `CC1(C)CN(c2cc(F)c3c(c2)[C@]2(COC(N)=N2)c2cc(-c4cncc(F)c4)ccc2O3)CCO1` [Example 282, (4S)-2′-(2,2-dimethyl-4-morpholinyl)-4′-fluoro-7′-(5-fluoro-3-pyridinyl)spiro[1,3-oxazole-4,9′-xanthen]-2-amine], the IC50 was determined as 2 nM in assay [1] and 8.2 nM in assay [2] (setting [4]).

For the compound `NC1=N[C@@]2(CO1)c1cc(-c3cncc(F)c3)c(F)cc1Oc1ncc(C3=CCOCC3)cc12` [Example 647, (5S)-3-(3,6-dihydro-2H-pyran-4-yl)-8-fluoro-7-(5-fluoro-3-pyridinyl)spiro[chromeno[2,3-b]pyridine-5,4-[1,3]oxazol]-2′-amine], the values for the IC50 in assay [1] and in assay [2] (setting [3]) were 2.1 nM and 16 nM, respectively.

`NC1=N[C@@]2(CO1)c1cc(-c3cnccc3F)ccc1Oc1c(F)cc(C3=CCCOC3)cc12` [Example 1045, (4S)-2′-(5,6-dihydro-2H-pyran-3-yl)-4′-fluoro-7′-(4-fluoro-3-pyridinyl)spiro[1,3-oxazole-4,9′-xanthen]-2-amine]: the IC50 in assay [1] stood at 0.6 nM; in assay [2] (setting [4]) it was 12 nM.

Regarding `CC(C)(C)COc1ccc2c(c1)[C@@]1(COC(N)=N1)c1cc(C3=CCOC(C)(C)C3)cnc1O2` [Example 507, (5S)-3-(2,2-dimethyl-3,6-dihydro-2H-pyran-4-yl)-7-(2,2-dimethylpropoxy)spiro[chromeno[2,3-b]pyridine-5,4′-[1,3]oxazol]-2′-amine], the IC50 in assay [1] turned out to be 5.6 nM; in assay [2] (average IC50, HEK cells), 31 nM.

Turning to `N#Cc1cccc(-c2ccc3c(c2)[C@@]2(CSC(N)=N2)c2cc(C4CCOCC4)cnc2O3)c1F` [Example 790, 3-((5S)-2′-amino-3-(tetrahydro-2H-pyran-4-yl)spiro[chromeno[2,3-b]pyridine-5,4′-[1,3]thiazol]-7-yl)-2-fluorobenzonitrile], the IC50 in assay [1] was 14.5 nM; in assay [2] (setting [4]), 97 nM.

On to `CC1(COc2cc(F)c3c(c2)[C@]2(CSC(N)=N2)c2cc(-c4cccnc4F)c(F)cc2O3)COC1` [Example 885, (4S)-3′,5′-difluoro-2′-(2-fluoro-3-pyridinyl)-7′-((3-methyl-3-oxetanyl)methoxy)spiro[1,3-thiazole-4,9′-xanthen]-2-amine], for which the IC50 in assay [1] came out at 0.4 nM; in assay [2] (setting [3]), 5 nM.

As to `CC(C)(C)/C=C/c1ccc2c(c1)[C@]1(COC(N)=N1)c1cc(-c3cncnc3)ncc1O2` [Example 384, (5R)-7-((1E)-3,3-dimethyl-1-buten-1-yl)-3-(5-pyrimidinyl)spiro[chromeno[2,3-c]pyridine-5,4′-[1,3]oxazol]-2′-amine], the figures for the IC50 in assay [1] and in assay [2] (setting [3]) were 4 nM and 84 nM, respectively.

As for `CC1(C#Cc2cc3c(cn2)Oc2ccc(-c4ccc(F)nc4)cc2[C@@]32COC(N)=N2)COC1` [Example 156, (5S)-7-(6-fluoro-3-pyridinyl)-3-((3-methyl-3-oxetanyl)ethynyl)spiro[chromeno[2,3-c]pyridine-5,4′-[1,3]oxazol]-2′-amine], the IC50 in assay [1] is 10.9 nM; in assay [2] (setting [4]) it was 45.9 nM.

For `CC#Cc1cncc(-c2ccc3c(c2)[C@@]2(COC(N)=N2)c2cc(C4CCOCC4)nc(F)c2O3)c1` [Example 753, (5S)-1-fluoro-7-(5-(1-propyn-1-yl)-3-pyridinyl)-3-(tetrahydro-2H-pyran-4-yl)spiro[chromeno[2,3-c]pyridine-5,4′-[1,3]oxazol]-2′-amine], the IC50 amounted to 0.7 nM in assay [1] and 4 nM in assay [2] (setting [4]).

Turning to `NC1=N[C@@]2(CO1)c1cc(-c3cnccn3)ccc1Oc1c(F)cc(N3C[C@@H]4C[C@H]3CO4)cc12` [Example 268, (4S)-4′-fluoro-2′-((1S,4S)-2-oxa-5-azabicyclo[2.2.1]hept-5-yl)-7′-(2-pyrazinyl)spiro[1,3-oxazole-4,9′-xanthen]-2-amine], the values for the IC50 in assay [1] and in assay [2] (setting [4]) were 10.5 nM and 26.1 nM, respectively.

Take `CC1(C#Cc2cc3c(cn2)Oc2ccc(-c4cccc(Cl)c4)cc2[C@@]32COC(N)=N2)COC1` [Example 157, (5S)-7-(3-chlorophenyl)-3-((3-methyl-3-oxetanyl)ethynyl)spiro[chromeno[2,3-c]pyridine-5,4′-[1,3]oxazol]-2′-amine]: the values for the IC50 in assay [1] and in assay [2] (setting [4]) were 0.8 nM and 30.2 nM, respectively.

For `CC1(C#Cc2cnc3c(c2)[C@@]2(COC(N)=N2)c2cc(-c4cccnc4F)c(F)cc2O3)COC1` [compound 108], the values for the IC50 in assay [1] and in assay [2] (setting [4]) were 2 nM and 3.6 nM, respectively.

On to `CC1(COc2cc3c(cc2F)Oc2ccc(-c4cncc(Cl)c4)cc2[C@@]32COC(N)=N2)COC1` [Example 333, (4S)-7′-(5-chloro-3-pyridinyl)-3′-fluoro-2′-((3-methyl-3-oxetanyl)methoxy)spiro[1,3-oxazole-4,9′-xanthen]-2-amine], for which the IC50 in assay [1] was determined as 2.4 nM; in assay [2] (setting [4]), 21.8 nM.

For `CC1(C#Cc2cc3c(cn2)Oc2ccc(-c4cccnc4F)cc2C32CSC(N)=N2)COC1` (stereo not shown) [Example 683, 7-(2-fluoro-3-pyridinyl)-3-((3-methyl-3-oxetanyl)ethynyl)spiro[chromeno[2,3-c]pyridine-5,4′-[1,3]thiazol]-2′-amine], the IC50 in assay [1] was determined as 1.2 nM; in assay [2] (setting [3]), 19 nM.

Regarding `NC1=N[C@@]2(CO1)c1cc(-c3cncc(F)c3)ccc1Oc1c(F)cc(C3=CCCOC3)cc12` [Example 278, (4S)-2′-(5,6-dihydro-2H-pyran-3-yl)-4′-fluoro-7′-(5-fluoro-3-pyridinyl)spiro[1,3-oxazole-4,9′-xanthen]-2-amine], the IC50 in assay [1] stood at 0.4 nM; in assay [2] (setting [4]), 3.9 nM.

Turning to `CC1(COc2cc(F)c3c(c2)[C@@]2(CSC(N)=N2)c2cc(-c4cccnc4F)ccc2O3)COC1` [Example 793, (4R)-4′-fluoro-7′-(2-fluoro-3-pyridinyl)-2′-((3-methyl-3-oxetanyl)methoxy)spiro[1,3-thiazole-4,9′-xanthen]-2-amine], the IC50 in assay [1] came to 180 nM; in assay [2] (setting [4]), 4810 nM.

For `N#Cc1cccc(-c2ccc3c(c2)[C@@]2(COC(N)=N2)c2cc(C4=CCOCC4)nc(F)c2O3)c1` [Example 743, 3-((5S)-2′-amino-3-(3,6-dihydro-2H-pyran-4-yl)-1-fluorospiro[chromeno[2,3-c]pyridine-5,4′-[1,3]oxazol]-7-yl)benzonitrile], the IC50 in assay [1] was 0.4 nM; in assay [2] (setting [4]) it was 6 nM.

As for `Cc1ccc(-c2ccc3c(c2)[C@@]2(COC(N)=N2)c2cc(C4=CCOCC4)cnc2O3)o1` [Example 324, (5S)-3-(3,6-dihydro-2H-pyran-4-yl)-7-(5-methyl-2-furanyl)spiro[chromeno[2,3-b]pyridine-5,4′-[1,3]oxazol]-2′-amine], the IC50 in assay [1] came to 42 nM; in assay [2] (setting [4]), 158 nM.

For `CC#Cc1cnc(F)c(-c2ccc3c(c2)[C@@]2(COC(N)=N2)c2cc(-c4ccnc(F)c4)cnc2O3)c1` [Example 956, (5S)-7-(2-fluoro-5-(1-propyn-1-yl)-3-pyridinyl)-3-(2-fluoro-4-pyridinyl)spiro[chromeno[2,3-b]pyridine-5,4′-[1,3]oxazol]-2′-amine], the IC50 in assay [1] is 0.4 nM; in assay [2] (setting [3]), 6 nM.
